Measured values reported in patent US6043278A, “Perfluoralkyl substituted metallo-beta-lactamase inhibitors” (Isis Innovation Limited, priority 1995, dated 2000).
Read-outs that look alike come from different tables or passages of the source.

Columns and labels:
[1] = molecular target: T1, Class B β-lactamase (B. cereus enzyme) (Bacillus cereus, UniProt P04190); test: Ki determination, initial rate of hydrolysis of reporter substrate cephalosporin C; format: biochemical
T1 construct: from a range of bacteria, including: Xanthomonas maltophilia, Bacillus cereus; endogenous in cells; host or cells: Bacillus cereus (enzyme purified from the bacterium)
Protocol: (§1) Class B β-lactamases were purified according to published^4 or standard procedures from a range of bacteria, including: Xanthomonas maltophilia, Bacillus cereus, Pseudomonas aeruginosa and Aeromonas hydrophila.
(§2) Assays for inhibition were also carried out according to published procedures^4. Kinetic experiments were typically carried out at 30° C. with 30 mM sodium cacodylate buffer, pH 6.5, containing 0.1 mM ZnCl2.
(§3) The Ki (inhibition constant) values were determined by analysing the initial rate of hydrolysis at different inhibitor concentrations using the following reporter substrates: 30 μm nitrocefin (X. maltophilia enzyme), 200 μM imipenem (A. hydrophila), or 1 mM cephalosporin C (B. cereus and P. aeruginosa enzymes). Data analysis was carried out according to standard kinetic procedures [Felici, A. et al., Biochem. J., 291, 151-155 (1993) and references therein].

[2] = molecular target: T2, Class B β-lactamase (X. maltophilia enzyme) (Stenotrophomonas maltophilia, UniProt P52700); test: Ki determination, initial rate of hydrolysis of reporter substrate nitrocefin; format: biochemical, Xanthomonas maltophilia
T2 construct: standard procedures from a range of bacteria, including: Xanthomonas maltophilia; endogenous in cells; host or cells: Xanthomonas maltophilia (enzyme purified from the bacterium)
Protocol: as §1, §2, §3

[3] = molecular target: T3, Class B β-lactamase (P. aeruginosa enzyme) (Pseudomonas aeruginosa, UniProt Q79MP6); test: Ki determination, initial rate of hydrolysis of reporter substrate cephalosporin C; format: biochemical; details: competitive inhibition; 1 mM cephalosporin C; 30° C., pH 6.5, 0.1 mM ZnCl2; read-out: Ki (inhibition constant)
T3 construct: Bacillus cereus, Pseudomonas aeruginosa and Aeromonas hydrophila; endogenous in cells; host or cells: Pseudomonas aeruginosa (enzyme purified from the bacterium)
Protocol: as §1, §2, §3

[4] = molecular target: T4, Class B β-lactamase (A. hydrophila enzyme) (Aeromonas hydrophila, UniProt P26918); test: Inhibition/inactivation kinetics, reporter substrate imipenem; format: biochemical; details: for mode of inhibition of the A. hydrophila enzyme: further kinetic analyses, no reactivation was observed; for Ki: inactivation kinetics, 200 μM imipenem, 30° C., pH 6.5, 0.1 mM ZnCl2, read-out: K = apparent binding constant between the enzyme and substrate
T4 construct: Bacillus cereus, Pseudomonas aeruginosa and Aeromonas hydrophila; endogenous in cells; host or cells: Aeromonas hydrophila (enzyme purified from the bacterium)
Protocol: as §1, §2, §3
Compounds 3, 4, 5, 6, 7 and 9 were also shown to be inhibitors of the A. hydrophila enzyme. […] The following kinetic parameters were obtained, where K=apparent binding constant between the enzyme and substrate and k+2 =apparent rate constant for inactivation as in the following scheme: [formula] Kinetic data for compound 3: K=6 μM, k+2 =4.3×10^-2 s^-1

[5] = competitive inhibition, 1 mM cephalosporin C, 30° C., pH 6.5, 0.1 mM ZnCl2, read-out: Ki (inhibition constant)
[6] = read-out: Ki (inhibition constant), competitive inhibition, 1 mM cephalosporin C, 30° C., pH 6.5, 0.1 mM ZnCl2

T3 sequence (Q79MP6 19-246 limits assumed): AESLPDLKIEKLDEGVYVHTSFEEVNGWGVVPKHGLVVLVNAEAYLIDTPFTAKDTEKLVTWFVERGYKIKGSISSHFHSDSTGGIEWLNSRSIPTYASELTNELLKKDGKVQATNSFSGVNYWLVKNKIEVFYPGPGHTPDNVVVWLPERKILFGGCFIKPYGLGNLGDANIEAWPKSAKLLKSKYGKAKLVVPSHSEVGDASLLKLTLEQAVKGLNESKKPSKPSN
T4 sequence (P26918 28-254): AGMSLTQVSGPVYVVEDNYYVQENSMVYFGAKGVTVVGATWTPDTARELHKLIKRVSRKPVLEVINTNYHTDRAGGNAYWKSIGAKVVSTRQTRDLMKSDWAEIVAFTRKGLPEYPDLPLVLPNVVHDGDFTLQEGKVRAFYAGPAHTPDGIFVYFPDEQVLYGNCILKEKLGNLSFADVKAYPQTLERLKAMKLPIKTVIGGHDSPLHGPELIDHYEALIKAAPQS
T2 sequence (P52700 34-290): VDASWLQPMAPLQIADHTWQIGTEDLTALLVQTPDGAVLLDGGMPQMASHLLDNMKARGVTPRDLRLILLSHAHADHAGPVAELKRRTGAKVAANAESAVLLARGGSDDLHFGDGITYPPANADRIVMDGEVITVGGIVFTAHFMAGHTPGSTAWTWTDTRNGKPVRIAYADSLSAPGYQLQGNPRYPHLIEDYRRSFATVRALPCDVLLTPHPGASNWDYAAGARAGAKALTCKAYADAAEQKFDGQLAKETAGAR
T1 sequence (P04190 31-257): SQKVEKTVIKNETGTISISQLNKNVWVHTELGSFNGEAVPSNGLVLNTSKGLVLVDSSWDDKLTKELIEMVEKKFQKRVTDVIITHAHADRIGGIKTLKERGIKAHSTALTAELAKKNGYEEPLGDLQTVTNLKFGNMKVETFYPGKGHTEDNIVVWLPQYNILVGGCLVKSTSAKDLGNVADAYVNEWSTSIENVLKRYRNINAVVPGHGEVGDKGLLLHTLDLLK

| SMILES | Ki [1, 5] [µM] | Ki [2] [µM] | Ki [3] [µM] | Ki [1] [µM] | mode of inhibition of the A. hydrophila enzyme [4] | Ki [4] [µM] | Ki [1, 6] [µM] | Ki ([2]; read-out: Ki (inhibition constant), competitive inhibition, 30 μm nitrocefin, 30° C., 30 mM sodium cacodylate pH 6.5, 0.1 mM ZnCl2) [µM] |
| --- | --- | --- | --- | --- | --- | --- | --- | --- |
| O=C(CC(=O)C(F)(F)F)c1ccccc1 [Compound 1, reference compound] | 300 | – | – | – | – | – | – | – |
| O=C(COc1ccccc1)N[C@H](Cc1ccccc1)C(=O)C(F)(F)F [Compound 2] | 1000 | – | – | – | – | – | – | – |
| O=C(COc1ccccc1)N[C@@H](Cc1ccccc1)C(=O)C(F)(F)F [Compound 3] | – | 15 | 530 | 500 | inactivators | 6 | – | – |
| O=C(COc1ccccc1)N[C@@H](Cc1ccccc1)[C@H](O)C(F)(F)F [Compound 4] | – | – | 900 | – | inactivators | 19 | 1000 | – |
| O=C(COc1ccccc1)N[C@H](Cc1ccccc1)[C@H](O)C(F)(F)F [Compound 5] | – | – | 60 | – | inactivators | 20 | 30 | – |
| C[C@H](NC(=O)COc1ccccc1)C(=O)C(F)(F)F [Compound 6] | – | 1.5 | 300 | 30 | inactivators | 44 | – | – |
| C[C@@H](NC(=O)COc1ccccc1)C(=O)C(F)(F)F [Compound 7] | – | 3 | 500 | 700 | inactivators | 11 | – | – |
| C[C@H](NC(=O)COc1ccccc1)[C@H](O)C(F)(F)F [Compound 8] | – | – | 400 | – | – | – | 300 | – |
| C[C@@H](NC(=O)COc1ccccc1)[C@H](O)C(F)(F)F [Compound 9] | – | – | 400 | – | inactivators | 217 | 700 | 35 |
